Here are results for 18 compounds from patent US20250282799A1, “SUBSTITUTED PYRIDO[4,3-d]PYRIMIDINES AS KRAS MODULATORS” (Alterome Therapeutics, Inc., priority 2023, published 2025).

The structures appear in SMILES notation. Bounds are passed on as bounds.

The subject of one experiment is KRAS G12V dependent lung adenocarcinoma cell line, NCI-H441. As to the kind of experiment: Cellular pERK (Thr202/Tyr204) FRET/HTRF assay. The class given is cell-based. Conditions: Homo sapiens, NCI-H441, cellular pERK (Thr202/Tyr204) HTRF, NCI-H441 cells. The method in brief:
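NCI-H441 cells (KRAS G12V) were seeded and grown overnight at 37 °C, 5% CO2, then treated with compound in DMSO for 1 hr. Lysates were probed with a Eu3+-cryptate/d2 antibody sandwich against pERK1/2 Thr202/Tyr204 and read by HTRF at 665 nm; IC50 from curve fitting.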
On the technique in general: TR-FRET usually uses a lanthanide donor and a delayed reading to cut background.
For the compound `C#Cc1c(F)ccc2cc(N)cc(-c3ncc4c(N5CCOC[C@H]6[C@H](F)[C@H]65)nc(OC[C@]56C/C(=C\F)CN5CCC65CC5)nc4c3C)c12` [Example 430, 5-ethynyl-6-fluoro-4-(4-((1S,7S,8S)-8-fluoro-5-oxa-2-azabicyclo[5.1.0]octan-2-yl)-2-(((R,E)-6-(fluoromethylene)tetrahydrospiro[cyclopropane-1,1′-pyrrolizin]-7a′(5′H)-yl)methoxy)-8-methylpyrido[4,3-d]pyrimidin-7-yl)naphthalen-2-amine], the IC50 (as a rule, the concentration that inhibits the measured activity by half) was less than 0.05 µM. Same read-out and setting: the result for `C#Cc1c(F)ccc2cc(N)cc(-c3ncc4c(N5CCOC[C@H]6[C@H](F)[C@H]65)nc(OC[C@]56C/C(=C/F)CN5CCC65CC5)nc4c3C)c12` [Example 431, 5-Ethynyl-6-fluoro-4-(4-((1S,7S,8S)-8-fluoro-5-oxa-2-azabicyclo[5.1.0]octan-2-yl)-2-(((R,Z)-6′-(fluoromethylene)tetrahydrospiro[cyclopropane-1,1′-pyrrolizin]-7a′(5′H)-yl)methoxy)-8-methylpyrido[4,3-d]pyrimidin-7-yl)naphthalen-2-amine] reads less than 0.05 µM.

The same experiment, now with this note: Homo sapiens, NCI-H441, cellular pERK HTRF, NCI-H441 (KRAS G12V) cells.
`[2H]C([2H])(Oc1nc(N2CCOC[C@H]3[C@H](F)[C@H]32)c2cnc(-c3cc(N)cc4ccc(F)c(C#C)c34)c(C)c2n1)[C@@]12CCCN1CC(=C)C2` [Example 436, 5-Ethynyl-6-fluoro-4-(4-((1S,7S,8S)-8-fluoro-5-oxa-2-azabicyclo[5.1.0]octan-2-yl)-8-methyl-2-(((S)-2-methylenetetrahydro-1H-pyrrolizin-7a(5H)-yl)methoxy-d2)pyrido[4,3-d]pyrimidin-7-yl)naphthalen-2-amine]: the IC50 was less than 0.05 µM. Compound `C#Cc1c(F)ccc2cc(N)cc(-c3ncc4c(N5CCOC[C@H]6[C@H](F)[C@H]65)nc(OC[C@]56CC(=C(F)F)CN5CCC65CC5)nc4c3C)c12` [Example 437, 4-(2-(((R)-6′-(difluoromethylene)tetrahydrospiro [cyclopropane-1,1′-pyrrolizin]-7a′(5′H)-yl)methoxy)-4-((1S,7S,8S)-8-fluoro-5-oxa-2-azabicyclo[5.1.0]octan-2-yl)-8-methylpyrido[4,3-d]pyrimidin-7-yl)-5-ethynyl-6-fluoronaphthalen-2-amine] displayed an IC50 of less than 0.05 µM.

In turn, `[2H]C([2H])(Oc1nc(N2CCOC[C@H]3[C@H](F)[C@H]32)c2cnc(-c3cc(N)cc4ccc(F)c(C#C)c34)c(C)c2n1)[C@]12CC(=C)CN1CCC21CC1` [Example 442, 5-Ethynyl-6-fluoro-4-(4-((1S,7S,8S)-8-fluoro-5-oxa-2-azabicyclo[5.1.0]octan-2-yl)-8-methyl-2-(((R)-6′-methylenetetrahydrospiro[cyclopropane-1,1′-pyrrolizin]-7a′(5′H)-yl)methoxy-d2)pyrido[4,3-d]pyrimidin-7-yl)naphthalen-2-amine] had an IC50 of less than 0.05 µM. In turn, `C#Cc1c(F)ccc2cc(N)cc(-c3ncc4c(N5CCOCC6C(Cl)C65)nc(OC[C@@]56CCCN5CC(=C)C6)nc4c3C)c12` (stereo partly drawn) [Example 443, 4-(4-(8-chloro-5-oxa-2-azabicyclo[5.1.0]octan-2-yl)-8-methyl-2-(((S)-2-methylenetetrahydro-1H-pyrrolizin-7a(5H)-yl)methoxy)pyrido[4,3-d]pyrimidin-7-yl)-5-ethynyl-6-fluoronaphthalen-2-amine] gave a half-inhibitory concentration (IC50) of less than 0.05 µM. On to `C#Cc1c(F)ccc2cc(N)cc(-c3ncc4c(N5CCOCC6C(Cl)C65)nc(OC[C@]56CC(=C)CN5CCC65CC5)nc4c3C)c12` (stereo partly drawn) [Example 444, 4-(4-(8-chloro-5-oxa-2-azabicyclo[5.1.0]octan-2-yl)-8-methyl-2-(((R)-6′-methylenetetrahydrospiro[cyclopropane-1,1′-pyrrolizin]-7a′(5′H)-yl)methoxy)pyrido[4,3-d]pyrimidin-7-yl)-5-ethynyl-6-fluoronaphthalen-2-amine], for which the IC50 is less than 0.05 µM. On the same count and under the same terms, the result for `[2H]C([2H])(Oc1nc(N2CCOC[C@H]3[C@H](F)[C@H]32)c2cnc(-c3cc(O)cc4ccc(F)c(C#C)c34)c(C)c2n1)[C@@]12CCCN1C[C@H](F)C2` [Example 445, 5-Ethynyl-6-fluoro-4-(4-((1S,7S,8S)-8-fluoro-5-oxa-2-azabicyclo[5.1.0]octan-2-yl)-2-(((2R,7aS)-2-fluorotetrahydro-1H-pyrrolizin-7a(5H)-yl)methoxy-d2)-8-methylpyrido[4,3-d]pyrimidin-7-yl)naphthalen-2-ol] reads less than 0.05 µM. With `[2H]C([2H])(Oc1nc(N2CCOC[C@H]3[C@H](F)[C@H]32)c2cnc(-c3cc(O)cc4ccc(F)c(C#C)c34)c(C)c2n1)[C@@]12CCCN1CC(=C)C2` [Example 446, 5-Ethynyl-6-fluoro-4-(4-((1S,7S,8S)-8-fluoro-5-oxa-2-azabicyclo[5.1.0]octan-2-yl)-8-methyl-2-(((S)-2-methylenetetrahydro-1H-pyrrolizin-7a(5H)-yl)methoxy-d2)pyrido[4,3-d]pyrimidin-7-yl)naphthalen-2-ol], the IC50 was less than 0.05 µM. In the case of `C#Cc1c(F)ccc2cc(O)cc(-c3ncc4c(N5CCOC[C@H]6[C@H](F)[C@H]65)nc(OC[C@@]56CCCN5C/C(=C/F)C6)nc4c3C)c12` [Example 447, 5-ethynyl-6-fluoro-4-(4-((1S,7S,8S)-8-fluoro-5-oxa-2-azabicyclo[5.1.0]octan-2-yl)-2-(((S,E)-2-(fluoromethylene)tetrahydro-1H-pyrrolizin-7a(5H)-yl)methoxy)-8-methylpyrido[4,3-d]pyrimidin-7-yl)naphthalen-2-ol], the IC50 is less than 0.05 µM. The compound `[2H]C([2H])(Oc1nc(N2CCOC[C@H]3[C@H](F)[C@H]32)c2cnc(-c3cc(O)cc4ccc(F)c(C#C)c34)c(C)c2n1)[C@]12CC(=C)CN1CCC21CC1` [Example 448, 5-Ethynyl-6-fluoro-4-(4-((1S,7S,8S)-8-fluoro-5-oxa-2-azabicyclo[5.1.0]octan-2-yl)-8-methyl-2-(((R)-6′-methylenetetrahydrospiro[cyclopropane-1,1′-pyrrolizin]-7a′(5′H)-yl)methoxy-d2)pyrido[4,3-d]pyrimidin-7-yl)naphthalen-2-ol] came in with an IC50 of less than 0.05 µM. Still for that read-out and setting: the figure for `C#Cc1c(F)ccc2cc(O)cc(-c3ncc4c(N5CCOC[C@H]6[C@H](F)[C@H]65)nc(OC[C@]56C/C(=C/F)CN5CCC65CC5)nc4c3C)c12` [Example 449, 5-ethynyl-6-fluoro-4-(4-((1S,7S,8S)-8-fluoro-5-oxa-2-azabicyclo[5.1.0]octan-2-yl)-2-(((R,Z)-6′-(fluoromethylene)tetrahydrospiro[cyclopropane-1,1′-pyrrolizin]-7a′(5′H)-yl)methoxy)-8-methylpyrido[4,3-d]pyrimidin-7-yl)naphthalen-2-ol] is less than 0.05 µM; for `[2H]C([2H])(Oc1nc(N2CCOC[C@H]3[C@H](F)[C@H]32)c2cnc(-c3cc(N)cc4ccc(F)c(C#C)c34)c(C3CC3)c2n1)[C@@]12CCCN1C[C@H](F)C2` [Example 452, 4-(8-cyclopropyl-4-((1S,7S,8S)-8-fluoro-5-oxa-2-azabicyclo[5.1.0]octan-2-yl)-2-(((2R,7aS)-2-fluorotetrahydro-1H-pyrrolizin-7a(5H)-yl)methoxy-d2)pyrido[4,3-d]pyrimidin-7-yl)-5-ethynyl-6-fluoronaphthalen-2-amine] it is 0.5 to 10 µM.

The compound `[2H]C([2H])(Oc1nc(N2CCOC[C@H]3[C@H](F)[C@H]32)c2cnc(-c3cc(N)cc4ccc(F)c(C#C)c34)c(C=C)c2n1)[C@@]12CCCN1C[C@H](F)C2` [Example 455, 5-ethynyl-6-fluoro-4-(4-((1S,7S,8S)-8-fluoro-5-oxa-2-azabicyclo[5.1.0]octan-2-yl)-2-(((2R,7aS)-2-fluorotetrahydro-1H-pyrrolizin-7a(5H)-yl)methoxy-d2)-8-vinylpyrido[4,3-d]pyrimidin-7-yl)naphthalen-2-amine] had an IC50 of less than 0.05 µM. In turn, `[2H]C([2H])(Oc1nc(N2CCOC[C@H]3[C@H](F)[C@H]32)c2cnc(-c3cc(N)cc4ccc(F)c(C#C)c34)c(CC)c2n1)[C@@]12CCCN1C[C@H](F)C2` [Example 456, 4-(8-Ethyl-4-((1S,7S,8S)-8-fluoro-5-oxa-2-azabicyclo[5.1.0]octan-2-yl)-2-(((2R,7aS)-2-fluorotetrahydro-1H-pyrrolizin-7a(5H)-yl)methoxy-d2)pyrido[4,3-d]pyrimidin-7-yl)-5-ethynyl-6-fluoronaphthalen-2-amine] displayed an IC50 of less than 0.05 µM. On to `[2H]C([2H])(Oc1nc(N2CCCC[C@H]3[C@H](F)[C@H]32)c2cnc(-c3cc(N)cc4ccc(F)c(C#C)c34)c(C)c2n1)[C@@]12CCCN1CC(=C)C2` [Example 457, 5-Ethynyl-6-fluoro-4-(4-((1S,7R,8S)-8-fluoro-2-azabicyclo[5.1.0]octan-2-yl)-8-methyl-2-(((S)-2-methylenetetrahydro-1H-pyrrolizin-7a(5H)-yl)methoxy-d2)pyrido[4,3-d]pyrimidin-7-yl)naphthalen-2-amine], for which the IC50 is less than 0.05 µM.

Take `[2H]C([2H])(Oc1nc(N2CCCC[C@H]3[C@H](F)[C@H]32)c2cnc(-c3cc(N)cc4ccc(F)c(C#C)c34)c(C)c2n1)[C@]12CC(=C)CN1CCC21CC1` [Example 458, 5-Ethynyl-6-fluoro-4-(4-((1S,7R,8S)-8-fluoro-2-azabicyclo[5.1.0]octan-2-yl)-8-methyl-2-(((R)-6′-methylenetetrahydrospiro[cyclopropane-1,1′-pyrrolizin]-7a′(5′H)-yl)methoxy-d2)pyrido[4,3-d]pyrimidin-7-yl)naphthalen-2-amine]: the IC50 was less than 0.05 µM. Compound `C#Cc1c(F)ccc2cc(N)cc(-c3ncc4c(N5CCOC[C@H]6[C@H](Cl)[C@H]65)nc(OC[C@]56CC(=C)CN5CCC65CC5)nc4c3C)c12` [Example 459, 4-(4-((1S,7S,8S)-8-Chloro-5-oxa-2-azabicyclo[5.1.0]octan-2-yl)-8-methyl-2-(((R)-6′-methylenetetrahydrospiro[cyclopropane-1,1′-pyrrolizin]-7a′(5′H)-yl)methoxy)pyrido[4,3-d]pyrimidin-7-yl)-5-ethynyl-6-fluoronaphthalen-2-amine] registered an IC50 of less than 0.05 µM.
